One block for each compound: values may come before it.
Experiments:
Assay type in all cases: biochemical
[1] = target: T1, glutamate dehydrogenase (GDH) from Geotrichum candidum S12 (Geotrichum candidum, UniProt A0A023RBK5); assay: activity towards hexanol, GC; conditions: read-out: Relative activity (%)^a
T1 construct: identified by PMF similarity to Yaliof17820p (Yarrowia homologue)
From the text: activity towards hexanol, GC on glutamate dehydrogenase (GDH) from Geotrichum candidum S12

[2] = target: T1, glutamate dehydrogenase (GDH) from Geotrichum candidum S12; assay: residual activity towards hexanol, GC; conditions: read-out: Relative activity (%)^a
From the text: residual activity towards hexanol, GC on glutamate dehydrogenase (GDH) from Geotrichum candidum S12

[3] = target: T1, glutamate dehydrogenase (GDH) from Geotrichum candidum S12; assay: activity towards hexanol, GC; conditions: 0.3 mmol/L NAD+, 9.8 mmol/L hexanol, pH 4.0, 30 °C

T1 sequence (A0A023RBK5 1-452): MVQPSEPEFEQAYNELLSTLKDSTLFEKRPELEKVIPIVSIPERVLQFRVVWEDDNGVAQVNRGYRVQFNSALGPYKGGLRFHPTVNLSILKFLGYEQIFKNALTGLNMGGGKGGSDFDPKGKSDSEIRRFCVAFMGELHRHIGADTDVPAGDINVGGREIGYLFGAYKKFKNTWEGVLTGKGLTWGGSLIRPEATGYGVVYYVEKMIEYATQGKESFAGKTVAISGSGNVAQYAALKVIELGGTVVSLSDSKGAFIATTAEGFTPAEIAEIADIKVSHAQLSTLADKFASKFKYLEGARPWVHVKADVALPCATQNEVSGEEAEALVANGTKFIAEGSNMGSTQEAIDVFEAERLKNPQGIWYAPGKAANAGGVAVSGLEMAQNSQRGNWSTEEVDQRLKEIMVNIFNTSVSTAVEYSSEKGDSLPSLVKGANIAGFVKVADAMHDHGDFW

activity at 1000 µM [1]: 138 ± 3.72%
SMILES: Nc1ncnc2c1ncn2[C@@H]1O[C@H](COP(=O)(O)OP(=O)(O)O)[C@@H](O)[C@H]1O [ADP]

activity at 1000 µM [2]: 14.3 ± 0.84%
SMILES: Nc1ncnc2c1ncn2[C@@H]1O[C@H](COP(=O)(O)OP(=O)(O)OP(=O)(O)O)[C@@H](O)[C@H]1O [ATP]

SMILES: NC(=O)c1ccc[n+]([C@@H]2O[C@H](COP(=O)(O)OP(=O)(O)OC[C@H]3O[C@@H](n4cnc5c(N)ncnc54)[C@H](O)[C@@H]3O)[C@@H](O)[C@H]2O)c1 [NAD^+]
activity towards hexanol, GC [3]: the enzyme could use NADP^+ and NAD^+ as a hydrogen acceptor of hexanol

Source: paper PMC5209314, “Purification and characterization of a novel glutamate dehydrogenase from Geotrichum candidum with higher alcohol and amino acid activity” (AMB Express, 2017)
